Molecular target: T1, RproOR1•RproOrco (Rhodnius prolixus, UniProt T1H977)
T1 sequence (T1H977 1-409): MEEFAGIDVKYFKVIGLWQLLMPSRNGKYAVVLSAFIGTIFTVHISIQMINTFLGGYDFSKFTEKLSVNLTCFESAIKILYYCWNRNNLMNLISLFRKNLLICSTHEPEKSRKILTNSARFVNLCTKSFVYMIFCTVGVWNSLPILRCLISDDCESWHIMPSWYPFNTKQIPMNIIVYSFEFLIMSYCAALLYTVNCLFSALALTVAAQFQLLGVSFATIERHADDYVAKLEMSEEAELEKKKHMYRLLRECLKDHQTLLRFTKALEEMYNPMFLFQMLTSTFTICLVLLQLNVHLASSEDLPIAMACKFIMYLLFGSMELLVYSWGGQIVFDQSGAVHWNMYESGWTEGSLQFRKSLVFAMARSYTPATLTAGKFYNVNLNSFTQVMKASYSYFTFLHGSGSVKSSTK
Assay: two-electrode voltage clamp, Xenopus oocytes
Format: cell-based
Conditions: agonist; -70 mV; coexpressed with RproOrco

Structure (SMILES)	two-electrode voltage clamp, Xenopus oocytes
CC/C=C\CCOC(C)=O [(Z)-3-hexenyl acetate]	moderate responses to 3-methyl-1-butanol, methyl butyrate, (Z)-3-hexenyl acetate
CCCCC=O [pentanal]	moderate responses to 3-methyl-1-butanol, methyl butyrate, (Z)-3-hexenyl acetate, pentanal
